These are literature values, as cited in patent publication US20070207107A1, “Silicone based emulsions for topical drug delivery” (priority 2006, published 2007).

For data set [1] the following is noted: drug dissolved in 98% hexamethyldisiloxane and 2% silicone gum.
The conditions of data set [2]: result in words.

As to `Clc1ccc(COC(Cn2ccnc2)c2ccc(Cl)cc2Cl)cc1` (stereo not shown) [econazole nitrate], in data set [1], the “skin penetration from silicone formulation compared with silicone-free emulsion” value is “reduced penetration”.

Regarding `C[C@]12CCC(=O)C=C1CC[C@@H]1[C@@H]2[C@@H](O)C[C@@]2(C)[C@H]1CC[C@]2(O)C(=O)CO` [hydrocortisone], the “skin penetration from silicone formulation compared with silicone-free emulsion” value in data set [1] was “formation of a reservoir of hydrocortisone in the stratum corneum”.

With `CC(C)Cc1ccc(C(C)C(=O)O)cc1` (stereo not shown) [ibuprofen], the “skin penetration from silicone formulation compared with silicone-free emulsion” value in data set [1] is “increased the penetration”.

Regarding `Cn1c(=O)c2c(ncn2C)n(C)c1=O` [Caffeine], in data set [2], the “skin permeability (classification)” value is “relatively high skin permeability”.
